Assays:
[1] = tested on: colon cancer cell line HCT116; assay: Apoptosis of colon cancer cell line HCT116; assay type: cell-based; details: 12.5 μM for 72 h
[2] = tested on: K-Ras mutated cell line SW626; assay: Apoptosis by Annexin V-FITC staining, SW626; assay type: cell-based, Human; details: SW626, 100 μM for 24 h; FIG. 3C
Method: FIGS. 3A to 3D show effect of peptides on apoptosis. A) MDA-MB231 cell line (mutated K-Ras) was cultured in the presence of the identified peptides at a concentration of 100 μM for 24 h. Apoptosis was detected by Annexin V-FITC staining and analyzed by flow cytometry. B) MDA-MB231 cell line was cultured as above, but to a concentration of 10 or 25 μM peptides. Apoptosis was estimated by annexin V-FITC staining. C) The K-Ras mutated cell line SW626 was cultured and analyzed as in A. D) The wild type K-RAs cell line BC 227 was cultured and analyzed as in A.
Apoptotic cells were detected using Annexin-V (-FITC from BD biosciences) as described by the manufacturer. Briefly, the cells were washed in 1× binding buffer, centrifugated and then resuspended in 200 μl of 1× binding buffer containing Annexin V-FITC (0.1 μg/ml) and PI (0.5 μg/ml). After incubation at room temperature in the dark for 10 min, cells were analyzed by flow cytometry. Data acquired by FACSCalibur (BD biosciences) were analyzed with Cellquest Pro software.

[3] = tested on: Ras/Raf interaction; assay: In vitro competition of Ras/Raf interaction (immunoprecipitation from cell lysates, blot); assay type: binding, Human; details: 1.5 mM of peptides, 30 min, room temperature; FIGS. 2A, 2B
Method: FIGS. 2A and 2B show in vitro competition of Ras/Raf interaction. Cells were lysed for 20 min at 4° C. in lysis buffer (50 mM Tris (pH 8), 1% Nonidet P-40, 137 mM NaCl, 1 mM MgCl2, 1 mM CaCl2, 10% glycerol, and protease inhibitor mixture). Lysates (800 μg of protein) were immunoprecipitated with the appropriate Ab overnight at 4° C., and protein A-Sepharose was added for 1 h at 4° C. After washing with 1×TBST (20 mM Tris-HCl (pH 7.5), 150 mM NaCl, 0.05% Tween 20), the Ras/Raf interaction was competed using peptides Mut3DPT-Ras (A) or Mut3DPT-Raf+Mut3DPT-Raf2 (B) at a concentration of 1.5 mM for 30 min at room temperature. After a washing, immunoprecipitates were transferred to nitrocellulose and blotted with the corresponding Ab.
The Ras/Raf interaction was competed using peptides corresponding to the binding site of Ras to Raf and vice versa. Lysates from MDA-MB321 or BC52 cell lines were immunoprecipitated with anti-Ras or anti-Raf Ab, and protein A-Sepharose was added. The Ras/Raf interaction was competed with 1.5 mM of peptides (30 min, room temperature). After washing steps, immunoprecipitates were transferred to nitrocellulose and blotted with the corresponding Ab. Proteins were detected using the ECL system.

[4] = tested on: primary tumor cells of chronic lymphocytic leukemia (CLL); assay: Apoptosis of primary tumor cells of chronic lymphocytic leukemia; assay type: cell-based

| Sequence | apoptosis of HCT116 [1] | apoptotic effect [2] | competition of the Ras/Raf interaction in vitro [3] | effect on CLL B and non-B cells [4] |
| --- | --- | --- | --- | --- |
| VKKKKIKAEIKIHEHKGKKARLDWNTDAAS (chimeric peptide) [Mut3DPT-Raf2] | cause apoptosis |  |  |  |
| VKKKKIKAEIKIKMSKDGKKKKKKSKTKCVIM (chimeric peptide) [Mut3DPT-Ras] |  | lower level of apoptosis | able to compete in vitro the interaction Ras/Raf | marked effect |
